Test results taken from ChEMBL document CHEMBL4229332, “Novel multi-target azinesulfonamides of cyclic amine derivatives as potential antipsychotics with pro-social and pro-cognitive effects” (Eur J Med Chem, 2018).

Legend:
[1] = target: T1, 5-hydroxytryptamine receptor 1A (Homo sapiens) (UniProt P08908); assay: Partial agonist activity at human 5-HT1AR expressed in CHO-K1 cells assessed as increase in cAMP accumulation at 10^-6 M by chemiluminescence-based assay relative to serotonin; format: functional, cell-based
T1 sequence (whole entry): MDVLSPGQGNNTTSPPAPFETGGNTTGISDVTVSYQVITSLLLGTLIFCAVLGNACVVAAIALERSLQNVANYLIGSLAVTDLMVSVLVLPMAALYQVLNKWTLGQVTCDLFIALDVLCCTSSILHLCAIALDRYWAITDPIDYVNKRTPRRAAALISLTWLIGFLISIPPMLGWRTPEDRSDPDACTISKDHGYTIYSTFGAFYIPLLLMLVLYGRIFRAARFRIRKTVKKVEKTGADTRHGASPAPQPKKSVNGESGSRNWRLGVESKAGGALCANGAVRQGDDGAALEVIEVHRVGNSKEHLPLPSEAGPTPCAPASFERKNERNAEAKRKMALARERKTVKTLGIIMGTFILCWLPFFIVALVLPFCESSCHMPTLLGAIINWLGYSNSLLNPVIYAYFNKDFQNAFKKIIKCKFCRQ

[2] = target: T1, 5-hydroxytryptamine receptor 1A (Homo sapiens); assay: Antagonist activity at human 5-HT1AR expressed in mouse BA/F3 cells assessed as inhibition of serotonin-induced calcium flux at 10^-6 M by fluorimetric method; format: functional, cell-based
[3] = Drug level in Wistar rat plasma at 3 mg/kg, ip measured after 15 mins by LC-MS/MS analysis; format: ADME, organism-based
[4] = Drug level in Wistar rat plasma at 3 mg/kg, ip measured after 60 mins by LC-MS/MS analysis; format: ADME, organism-based
[5] = Drug level in Wistar rat brain at 3 mg/kg, ip measured after 15 mins by LC-MS/MS analysis; format: ADME, organism-based; conditions: read-out: Drug uptake
[6] = Drug level in Wistar rat brain at 3 mg/kg, ip measured after 30 mins by LC-MS/MS analysis; format: ADME, organism-based; conditions: read-out: Drug uptake
[7] = Drug level in Wistar rat brain at 3 mg/kg, ip measured after 60 mins by LC-MS/MS analysis; format: ADME, organism-based; conditions: read-out: Drug uptake
[8] = Ratio of drug level in brain to plasma in Wistar rat at 3 mg/kg, ip measured after 15 mins by LC-MS/MS analysis; format: ADME, organism-based; conditions: read-out: BPR
[9] = Ratio of drug level in brain to plasma in Wistar rat at 3 mg/kg, ip measured after 30 mins by LC-MS/MS analysis; format: ADME, organism-based; conditions: read-out: BPR
Cavia porcellus [10] = assay: Cardiotoxicity in guinea pig assessed as effect on QT interval time at 5 mg/kg, ip measured after 30 mins by ECG analysis (reference value: 127.6 to 131.2 milliseconds); format: toxicity, organism-based; conditions: in vivo, 0.5 h
Cavia porcellus [11] = assay: Cardiotoxicity in guinea pig assessed as effect on QT interval time at 5 mg/kg, ip measured after 40 mins by ECG analysis (reference value: 127.6 to 131.2 milliseconds); format: toxicity, organism-based; conditions: in vivo
Cavia porcellus [12] = assay: Cardiotoxicity in guinea pig assessed as effect on QT interval time at 5 mg/kg, ip measured after 60 mins by ECG analysis (reference value: 127.6 to 131.2 milliseconds); format: toxicity, organism-based; conditions: in vivo, 1 h
Cavia porcellus [13] = assay: Cardiotoxicity in guinea pig assessed as effect on QT interval time at 5 mg/kg, ip measured after 70 mins by ECG analysis (reference value: 127.6 to 131.2 milliseconds); format: toxicity, organism-based; conditions: in vivo
Cavia porcellus [14] = assay: Cardiotoxicity in guinea pig assessed as effect on QT interval time at 5 mg/kg, ip measured after 80 mins by ECG analysis (reference value: 127.6 to 131.2 milliseconds); format: toxicity, organism-based; conditions: in vivo
Cavia porcellus [15] = assay: Cardiotoxicity in guinea pig assessed as effect on PR interval time at 5 mg/kg, ip measured after 20 mins by ECG analysis (reference value: 58.8 to 63.8 milliseconds); format: toxicity, organism-based; conditions: in vivo
Cavia porcellus [16] = assay: Cardiotoxicity in guinea pig assessed as effect on PR interval time at 5 mg/kg, ip measured after 60 mins by ECG analysis (reference value: 58.8 to 63.8 milliseconds); format: toxicity, organism-based; conditions: in vivo, 1 h
Cavia porcellus [17] = assay: Cardiotoxicity in guinea pig assessed as effect on RR interval time at 5 mg/kg, ip measured after 50 mins by ECG analysis (reference value: 208.4 to 238.4 milliseconds); format: toxicity, organism-based; conditions: in vivo
Cavia porcellus [18] = assay: Cardiotoxicity in guinea pig assessed as effect on RR interval time at 5 mg/kg, ip measured after 60 mins by ECG analysis (reference value: 208.4 to 238.4 milliseconds); format: toxicity, organism-based; conditions: in vivo, 1 h
Cavia porcellus [19] = assay: Cardiotoxicity in guinea pig assessed as effect on RR interval time at 5 mg/kg, ip measured after 80 mins by ECG analysis (reference value: 208.4 to 238.4 milliseconds); format: toxicity, organism-based; conditions: in vivo
Cavia porcellus [20] = assay: Cardiotoxicity in guinea pig assessed as effect on QTc interval time at 5 mg/kg, ip measured after 30 mins by ECG analysis (reference value: […] to […] milliseconds); format: toxicity, organism-based; conditions: in vivo, 0.5 h
Cavia porcellus [21] = assay: Cardiotoxicity in guinea pig assessed as effect on QTc interval time at 5 mg/kg, ip measured after 50 mins by ECG analysis (reference value: […] to […] milliseconds); format: toxicity, organism-based; conditions: in vivo
Cavia porcellus [22] = assay: Cardiotoxicity in guinea pig assessed as effect on QTc interval time at 5 mg/kg, ip measured after 70 mins by ECG analysis (reference value: […] to […] milliseconds); format: toxicity, organism-based; conditions: in vivo
Cavia porcellus [23] = assay: Cardiotoxicity in guinea pig assessed as effect on frequence of heart rate at 5 mg/kg, ip measured after 30 mins by ECG analysis (reference value: 262 to 296 /min); format: toxicity, organism-based; conditions: in vivo, 0.5 h
Cavia porcellus [24] = assay: Cardiotoxicity in guinea pig assessed as effect on frequence of heart rate at 5 mg/kg, ip measured after 50 mins by ECG analysis (reference value: 262 to 296 /min); format: toxicity, organism-based; conditions: in vivo
Cavia porcellus [25] = assay: Cardiotoxicity in guinea pig assessed as effect on frequence of heart rate at 5 mg/kg, ip measured after 60 mins by ECG analysis (reference value: 262 to 296 /min); format: toxicity, organism-based; conditions: in vivo, 1 h
Cytochrome P450 1A2 = Cytochrome P450 1A2 (Homo sapiens, UniProt P05177); assay: Inhibition of human supersome CYP1A2 using caffeine as substrate assessed as caffeine 3-N-demethylation after 30 mins by HPLC-UV detection; format: ADME
Chain of Cytochrome P450 1A2 (P05177 whole entry): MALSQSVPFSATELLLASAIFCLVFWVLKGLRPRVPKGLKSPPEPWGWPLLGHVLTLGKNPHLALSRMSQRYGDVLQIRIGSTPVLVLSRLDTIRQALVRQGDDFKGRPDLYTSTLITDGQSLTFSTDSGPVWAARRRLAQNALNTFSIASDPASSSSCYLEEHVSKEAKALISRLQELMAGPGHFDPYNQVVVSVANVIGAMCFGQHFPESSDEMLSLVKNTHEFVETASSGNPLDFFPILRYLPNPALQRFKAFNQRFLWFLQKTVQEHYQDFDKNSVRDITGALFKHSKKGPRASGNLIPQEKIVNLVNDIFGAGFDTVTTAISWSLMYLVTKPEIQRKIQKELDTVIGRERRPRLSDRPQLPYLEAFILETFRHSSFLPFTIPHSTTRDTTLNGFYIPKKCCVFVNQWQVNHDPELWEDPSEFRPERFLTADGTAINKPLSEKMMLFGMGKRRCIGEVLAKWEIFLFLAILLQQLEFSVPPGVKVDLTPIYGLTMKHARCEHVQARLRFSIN

Cytochrome P450 2D6 = Cytochrome P450 2D6 (Homo sapiens, UniProt P10635); assay: Inhibition of human supersome CYP2D6 using bufuralol as substrate assessed as bufuralol 1'-hydroxylation after 30 mins by HPLC-UV detection; format: ADME
Chain of Cytochrome P450 2D6 (P10635 whole entry): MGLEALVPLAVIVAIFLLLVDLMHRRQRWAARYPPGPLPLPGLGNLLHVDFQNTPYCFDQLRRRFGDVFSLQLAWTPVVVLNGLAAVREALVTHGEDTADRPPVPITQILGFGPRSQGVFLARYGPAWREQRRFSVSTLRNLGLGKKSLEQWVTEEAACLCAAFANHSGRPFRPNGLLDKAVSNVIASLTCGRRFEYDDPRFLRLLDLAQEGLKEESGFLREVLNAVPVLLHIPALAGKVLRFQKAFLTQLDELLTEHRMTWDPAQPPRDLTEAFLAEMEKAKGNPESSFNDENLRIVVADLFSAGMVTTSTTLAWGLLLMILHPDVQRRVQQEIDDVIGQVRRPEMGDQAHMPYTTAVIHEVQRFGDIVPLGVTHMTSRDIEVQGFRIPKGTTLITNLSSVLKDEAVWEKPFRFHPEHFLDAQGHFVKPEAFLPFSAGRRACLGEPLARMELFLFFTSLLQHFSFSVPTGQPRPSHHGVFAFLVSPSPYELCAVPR

Cytochrome P450 3A4 = Cytochrome P450 3A4 (Homo sapiens, UniProt P08684); assay: Inhibition of human supersome CYP3A4 using testosterone as substrate assessed as testosterone 6beta-hydroxylation after 30 mins by HPLC-UV detection; format: ADME
Chain of Cytochrome P450 3A4 (P08684 whole entry): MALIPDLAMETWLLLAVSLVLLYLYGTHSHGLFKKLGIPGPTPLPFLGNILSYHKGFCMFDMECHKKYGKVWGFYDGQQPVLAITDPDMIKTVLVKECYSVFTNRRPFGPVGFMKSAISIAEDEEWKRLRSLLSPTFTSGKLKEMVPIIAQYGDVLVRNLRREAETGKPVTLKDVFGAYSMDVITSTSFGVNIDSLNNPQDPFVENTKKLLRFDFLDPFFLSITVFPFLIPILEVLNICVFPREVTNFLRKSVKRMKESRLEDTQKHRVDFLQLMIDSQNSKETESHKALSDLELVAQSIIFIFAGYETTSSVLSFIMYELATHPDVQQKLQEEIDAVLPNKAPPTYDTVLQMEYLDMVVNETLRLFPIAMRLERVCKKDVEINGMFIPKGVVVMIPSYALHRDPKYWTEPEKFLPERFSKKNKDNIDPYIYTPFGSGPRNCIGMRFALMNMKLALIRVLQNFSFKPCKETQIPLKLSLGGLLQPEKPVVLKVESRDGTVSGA

[26] = Toxicity in ip dosed Sprague-Dawley rat assessed as sedation pretreated for 60 mins followed by PCP addition measured for 30 mins starting 15 min after rat reintroduction to auto-tracks; format: organism-based; conditions: in vivo
[27] = target: 5-hydroxytryptamine receptor 2B (Homo sapiens) (UniProt P41595); assay: Agonist activity at human 5-HT2BR expressed in CHO cells assessed as induction of IP1 accumulation at 10^-6 M after 30 mins by HTRF method; format: functional, cell-based
Chain of 5-hydroxytryptamine receptor 2B (Homo sapiens) (P41595 whole entry): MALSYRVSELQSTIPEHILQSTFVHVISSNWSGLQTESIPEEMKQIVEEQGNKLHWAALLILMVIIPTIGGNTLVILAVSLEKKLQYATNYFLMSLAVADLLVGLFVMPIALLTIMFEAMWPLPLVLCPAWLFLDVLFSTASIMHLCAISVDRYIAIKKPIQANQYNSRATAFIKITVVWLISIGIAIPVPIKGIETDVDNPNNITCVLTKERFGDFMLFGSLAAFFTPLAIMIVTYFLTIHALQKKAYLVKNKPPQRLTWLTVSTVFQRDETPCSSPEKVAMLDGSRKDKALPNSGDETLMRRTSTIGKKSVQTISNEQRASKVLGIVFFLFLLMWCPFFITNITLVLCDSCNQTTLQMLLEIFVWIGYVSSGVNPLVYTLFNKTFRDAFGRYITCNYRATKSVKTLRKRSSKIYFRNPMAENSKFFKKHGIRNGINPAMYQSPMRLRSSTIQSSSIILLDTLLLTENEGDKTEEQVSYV

[28] = target: T2, 5-hydroxytryptamine receptor 1A (Homo sapiens, UniProt P08908); assay: biochemical
T2 sequence (P08908 whole entry): T1 sequence (whole entry)
Description: Displacement of [3H]-8-OH-DPAT from human 5-HT1AR expressed in HEK293 cell membranes after 1 hr by microbeta counting method

For `O=S(=O)(c1cncc2ccccc12)N1CCC[C@H]1CCN1CCN(c2cccc3sccc23)CC1`, the Activity [1] was 40.6%, the inhibition [2] was 80% and the concentration at 0.25 h [3] was 188 nM. The concentration at 1 h [4] was 45 nM, the concentration at 0.25 h [5] was 317 nM and the concentration at 0.5 h [6] was 245 nM. The concentration at 1 h [7] was 89.3 nM, the Kp at 0.25 h [8] was 1.69 and the Kp at 0.5 h [9] was 2.44. For the same molecule, the Time (Cavia porcellus [10]) was 126.8 ms, the Time (Cavia porcellus [11]) was 125.2 ms and the Time (Cavia porcellus [12]) was 124.6 ms. For the same molecule, the Time (Cavia porcellus [13]) was 124 ms, the Time (Cavia porcellus [14]) was 123.6 ms and the Time (Cavia porcellus [15]) was 63.8 ms. The Time (Cavia porcellus [16]) was 63.4 ms, the Time (Cavia porcellus [17]) was 220 ms and the Time (Cavia porcellus [18]) was 219.8 ms. For the same molecule, the Time (Cavia porcellus [19]) was 214 ms, the Time (Cavia porcellus [20]) was 262.8 ms and the Time (Cavia porcellus [21]) was 265 ms. For the same molecule, the Time (Cavia porcellus [22]) was 265.6 ms, the Activity (Cavia porcellus [23]) was 264 min⁻¹ and the Activity (Cavia porcellus [24]) was 270 min⁻¹. For the same molecule, the Activity (Cavia porcellus [25]) was 276 min⁻¹, the IC50 (Cytochrome P450 1A2) was > 100 µM and the IC50 (Cytochrome P450 2D6) was > 100 µM. For the same molecule, the IC50 (Cytochrome P450 3A4) was 10 µM, the MTD at 0.5 h [26] was 3 mg/kg and the inhibition [27] was 14%. It also gave a Ki [28] of 0.018 µM.

In the case of `O=S(=O)(c1cncc2ccccc12)N1CCC[C@H]1CCN1CCN(c2nsc3ccccc23)CC1`, the Activity [1] is reported as 5.3%, the inhibition [2] is reported as 87% and the concentration at 0.25 h [3] is reported as 249 nM. For the same molecule, the concentration at 1 h [4] was 50.2 nM, the concentration at 0.25 h [5] was 153 nM and the concentration at 0.5 h [6] was 177 nM. It also gave a concentration at 1 h [7] of 49.4 nM, a Kp at 0.25 h [8] of 0.59 and a Kp at 0.5 h [9] of 1.33. The Time (Cavia porcellus [10]) was 128.8 ms, the Time (Cavia porcellus [11]) was 125.4 ms and the Time (Cavia porcellus [12]) was 125.8 ms. The Time (Cavia porcellus [13]) was 125.4 ms, the Time (Cavia porcellus [14]) was 125.6 ms and the Time (Cavia porcellus [15]) was 59.6 ms. For the same molecule, the Time (Cavia porcellus [16]) was 63.2 ms, the Time (Cavia porcellus [17]) was 210.6 ms and the Time (Cavia porcellus [18]) was 210.4 ms. It also gave a Time (Cavia porcellus [19]) of 213 ms, a Time (Cavia porcellus [20]) of 280.6 ms and a Time (Cavia porcellus [21]) of 266 ms. It also gave a Time (Cavia porcellus [22]) of 274.6 ms, an Activity (Cavia porcellus [23]) of 287 min⁻¹ and an Activity (Cavia porcellus [24]) of 288 min⁻¹. The Activity (Cavia porcellus [25]) was 288 min⁻¹, the IC50 (Cytochrome P450 1A2) was > 100 µM and the IC50 (Cytochrome P450 2D6) was > 100 µM. The IC50 (Cytochrome P450 3A4) was 23 µM, the MTD at 0.5 h [26] was 3 mg/kg and the Kb [27] was 0.003 µM. For the same molecule, the Ki [28] was 0.037 µM.
